One assay has as its system THP-1 cells. As to the kind of experiment: In vitro apoE secretion by THP-1 cells (ELISA). In kind it is cell-based, human. The following applies: 72 hours incubation, ELISA of culture medium. The source says:
The in vitro assay comprises determining the effect of a compound of formula (I) in modulating the secretion of apoE by an apoE secreting cell line (e.g., a monocyte-macrophage cell line such as the THP-1 cell line, a liver derived cell line such as the HepG2 cell line, an intestinal derived cell line such as the CaCo2 cell line, or a brain derived cell line such as the astrocytoma CCF-STTG1 cell line). The experimental details for use of the THP-1 cell line in the in vitro assay are provided below.
The THP-1 cell line was derived from the peripheral blood of a child with acute monocytic leukaemia and were obtained from the European Collection of Animal Cell Cultures (ECACC, #88081201). […] The cells are grown as non-adherent cells in RPMI 1640 culture medium, 2 mM glutamine, 20 μM 2-mercaptoethanol. Fresh medium is added to maintain cell density between 2 and 9×10^5 cells/ml. […]
Ninety-six well-microtiter plates are coated by incubating with a 5% gelatin solution from porcine skin, bloom 60 in 50 mM carbonate-bicarbonate buffer, pH9.6 at the concentration of 200 μl/well, for 2 hours at 37° C. The coating solution is carefully removed and the sample to be analyzed was added (100 μl/well) at the appropriate dilution. […] The absorbance at 492 nm versus 620 nm is read on a microplate photometer and the results are then converted in human apoE ng equivalent. […]

A further assay relates to apoE plasma levels. As to the kind of experiment: ApoE plasma levels in vivo in the rat (ATRA).
The subject of another assay is apoE in sciatic nerve. The assay is described as follows: Sciatic nerve tissue apoE levels in vivo, rat model of sciatic injury (ELISA). The following applies: rats, orally, 400 mg/kg/day for 37 days; % change from control. As to the method:
A rat model of sciatic injury was established according to Goodrum & Boudin, 1996. Rats with or without nerve injury were treated orally with compound 1 (400 mg/kg for 5 weeks). The amount of apoE was determined in homogenates of the sciatic nerves by ELISA using a goat anti-apolipoprotein E antibody. A dilution to 1/200 of rat plasma was coated on microtiter plates; apoE was recognized by the polyclonal antibody; the conjugate (anti-goat IgG peroxidase) antibody was then added for substrate biochemical recognition. Apolipoprotein E was expressed as % change from mean control value. Cholesterol was measured with a commercially available enzymatic kit (Bioreac, Switzerland). Results were expressed as % change from control group.
(In general: ELISA stands for enzyme-linked immunosorbent assay.)

The subject of another assay is plasma apoE. As to the kind of experiment: Plasma apoE levels in vivo in rats fed a normal diet. Set-up: species or system rat. The following applies: orally, 400 mg/kg per day for 5 days. The source says: A convenient model for the screening of apoE modulating compounds is the model described in Leininger-Muller & Siest, 1996. This model involves the use of rats fed a normal diet. Selected compounds of formula (I) ae submitted to the in vivo rat test. Following are the results for compound 1, diethyl α-(dimethoxyphosphinyl)-p-chlorobenzyl phosphate: [drawing 3]
Two groups of 4 or 5 OFA rats (Iffa-Credo, France) weighing between 140 g and 160 g were acclimatized for at least one week, allowed UAR food and tap water ad libitum, under a 12/12 hours light/obscurity cycle (7.00 am-7.00 pm) then treated daily between 3.00 pm and 4.00 pm with test compounds ([…]) p.o. in a vehicle volume of 1 ml for 5 days. Compound 1 was given as a suspension in 20% Tween-80 supplemented with 0.5% carboxymethylcellulose. Control group received 1 ml vehicle alone. After a treatment period of 5 days, rats were weighed, sacrificed by decapitation under pentobarbital anesthesia after an overnight fast. Blood was collected on EDTA and plasma was used for analysis. When given orally to rats at the dose of 400 mg/kg per day for 5 days, compound 1 increased plasma apoE by 61±8%.

For the compound `CC1=C(/C=C/C(C)=C/C=C/C(C)=C/C(=O)O)C(C)(C)CCC1` [ATRA, all-trans retinoic acid], the “production of apoE by THP-1 cells” value in the assay with THP-1 cells is listed as “decreased the production of apoE”. Moreover, in the assay with apoE plasma levels, the “apoE plasma levels observed in vivo in the rat” value is listed as “decreased apoE plasma levels”.
As for `CCOP(=O)(OCC)OC(c1ccc(Cl)cc1)P(=O)(OC)OC` (stereo not drawn) [compound 1, diethyl α-(dimethoxyphosphinyl)-p-chlorobenzyl phosphate], in the assay with apoE in sciatic nerve, the “increase of apoE in the contralateral nerve” value was 58% and the “increase of apoE in the crushed sciatic nerve” value is listed as 154%. For the same compound, in the assay with plasma apoE, the “increase of plasma apoE” value amounted to 61±8%.

The values are drawn from US20060009423A1, “Phosphonate-phosphate and diphosphonate apolipoprotein e modulators” (priority 2002, published 2006).
